Results reported in publication PMC4914250, “Cancer therapeutic approach based on conformational stabilization of mutant p53 protein by small peptides” (Oncotarget, 2016).

Key:
[1] = tested on: p53 target genes p21, PUMA and Mdm2 in H1299-tsp53^V135A cells; assay: Induction of p53 target genes by qRT-PCR, H1299-tsp53 cells; assay type: cell-based, human; conditions: peptide 5μg/ml, 18 hours, 37°C
Experimental: Since p53 works primarily as a transcription factor, we tested the ability of lead peptides to induce p53 target gene activation. To that end we used H1299-tsp53^V135A cells, which express temperature sensitive (ts) p53 and allow examination of WT and mutant p53 states in the same cellular background. In the representative experiment shown in Figure 3A, cells were exposed to the indicated peptides (5μg/ml) and then either transferred to 32°C or placed back at 37°C. Cells were harvested 18 hours later, and mRNA was extracted and subjected to qRT-PCR analysis. Expression levels of 3 representative p53 target genes, p21, PUMA and Mdm2, were examined. Values were normalized to non-treated cells at 37°C, and expression at 32°C, where the ts-p53 is in a WT conformation, served as positive control. […] A similar analysis was performed on ES2 ovarian cancer cells, expressing endogenous mp53^S241F, compared to ES2 p53KO cells (Figure 3B).
Figure 3 Peptides binding to p53 and their effect on the expression of p53 target genes A. - Bar graph illustrating the effect of selected peptides on activation of mutp53 by measuring transactivation of p53 target genes as determined by qRT-PCR. H1299 cells stably transfected with mutp53 (ts) A135V were used. The indicated peptides were added directly to the medium at a concentration of 5ug/ml and cells were then either moved to 32°C or returned to 37°C. 18 hours later cells were harvested, extracted for RNA, cDNA was synthesis subjected to qrt time PCR analysis. The expression level of 3 representative p53 target genes, p21, PUMA and Mdm2, were examined. The figure illustrates the relative fold induction of transcription of the cells treated with the selected peptides as compared to non-treated cells. B. - Bar graph illustrating the effect of selected peptides on activation of mutp53 by measuring transactivation of p53 target genes as determined by qRT-PCR. ES2and ES2-p53KO cells were treated with indicated peptides 5ug/ml, for 18 hours. Cells were harvested, and cDNA was subjected to qRT-PCR analysis. Expression of 4 representative p53 target genes, p21, PUMA, Mdm2 and CD95, was examined. The figure illustrates the relative fold induction of transcription in cells treated with the selected peptides compared to non-treated cells. C. - Binding of mutp53 to promoters of representative p53 target genes in live cells, assessed by chromatin immunoprecipitation. BT-549 breast cancer cells endogenously expressing mutant p53^R249S were treated for 5 hours with a mix of 3 pCAPs - 250, 242 and 325. […] DNA cross-linked p53 was immunoprecipitated, and binding to the p53 responsive elements of the PUMA, p21, CD95 and MDM2 gene promoters was quantified by qPCR. […] Results are presented as relative absorbance at 450nm. […]

[2] = tested on: recombinant WTp53 or mutp53R175H; assay: ELISA of binding of WTp53 and mutp53 to plate-conjugated peptides; conditions: peptides conjugated to wells, peptides recruited preferentially WTp53
[3] = tested on: SW-480 colon cancer cells; assay: SW480 colon carcinoma xenograft, intratumoral injection; assay type: in vivo, nude mice
Experimental: The lead peptides were evaluated also in a colon carcinoma xenograft model, employing SW480 cells that harbor p53^R273H, P309S. The experiment was conducted on 15 mice, randomly divided into 3 groups: a control group treated with a cocktail of 3 ineffective peptides, a group treated with a cocktail of 3 effective pCAPs (250, 308, 325) and a group treated singly with pCAP-325. Tumors were allowed to reach visible size for 10 days before onset of treatment. […] Figures 6F, 6G show the mean weight and volume of excised tumors.
Figure 6 Effect of lead peptides on tumor progression in vivo; colon cancer xenograft model In vivo effect of the indicated peptides in a mouse xenograft model of SW-480 colon cancer cells. 10^6 cells were injected and tumors were allowed to establish for 10 days. […] D., E. - Box plot of tumor volume and weight, respectively. TEXT PRINTED IN THE PICTURE: (A) Control peptides: SW-480 colon carcinoma cells (p53^273,309): 240% | (B) pCAP mix: SW-480 colon carcinoma cells (p53^273,309): -97% | (C) pCAP-325: SW-480 colon carcinoma cells (p53^273,309): -93.6% DOUBTS OF THE COPYIST ABOUT THIS PICTURE: Panels A-C: no measure is printed with the percentages (240%, -97%, -93.6%); each stands only beside a bracket at the right end of the plot
Mice (6 weeks athymic nude) were injected subcutaneously with 2×10^5-10^6 cells into each […]. All cell lines employed in these experiments stably express a luciferase reporter gene to enable monitoring of tumor growth by live imaging. 4-18 days later, when tumors reached visible size, the mice were randomly divided into several groups: a control group, treated with either a single control peptide or a mix of 2-3 control pCAPs, and groups treated with effective peptides, either a single peptide or a mix of three peptides. Peptides were administered by intratumoral injection of 6-10μg peptide per tumor in 40μl PBS, three times a week. Tumor growth over time was measured by live imaging, using the IVIS2000 system. Exposure time was calibrated to 20 seconds. 16 images were taken over 8 minutes and peak luminescence values were taken for each tumor. Experiments were conducted until tumors reached maximal allowed size of 1cm^3, at which time were sacrificed and tumors extracted, measured and weighed.

[4] = Experiment 4, SW-480 p53^R273H,P309S
[5] = Experiment 4, SW-480 p53^R273H,P309S, excised tumors

LRCLLLLIGRVGRRRRRRRR [pCAP-24R, pCAP-24 with poly arginine tail]
expression of the p53 target genes, H1299-tsp53 [1]: significant increase

WNHHHSTPHPAHRRRRRR [pCAP-97R, pCAP-97 with poly arginine tail]
expression of the p53 target genes, H1299-tsp53 [1]: significant increase

IRGRIIR [pCAP-54]
expression of the p53 target genes, H1299-tsp53 [1]: significant increase

myr-RRKHNKHRPEPDSDER [pCAP-221]
recruitment of mutp53 lower than of WTp53 [2]: 50%-80%

myr-RRIRDPRILLLHFD [pCAP-325]
% of tumors total regression [3, 4]: 20% | IVIS average ratio to day 0 [3, 4]: 6.4% | Samples average size [3, 5]: 0.12 | Samples average weight [3, 5]: 0.1 | tumor size decrease ([3]; SW480 xenograft, intratumoral three times a week, mix 2μg of each peptide or pCAP-325 6μg, live imaging): 93.6%

SFILFIRRGRLGRRRRRRRRR [pCAP-60R, pCAP-60 with poly arginine tail]
expression of the p53 target genes, H1299-tsp53 [1]: significant increase

myr-RRLIVRILKLPNPPER [pCAP-242]
recruitment of mutp53 lower than of WTp53 [2]: 50%-80%
